Strand notation (5' to 3'): a small letter for the sugar, then the base; units joined by * are phosphorothioate-linked, units joined directly phosphodiester-linked; [ ] holds rarer units or linkages, { } end groups; capitals alone tell only the bases. k = constrained ethyl (cEt); [5mC] = 5-methylcytosine; d = 2'-deoxy (DNA)
These substances were tested on Yap1 mRNA (assay: Antisense inhibition of human Yap1 in A-431 cells by cEt gapmers, single dose (Example 2, RTS4814)). Settings: Table 18; A-431 cells, 5,000 cells per well, free uptake, 2,000 nM modified oligonucleotide, approx. 48 hours; RTS4814; normalized to RIBOGREEN; Yap1 mRNA as percent of untreated control.
Type: cell-based
In short: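 Yap1 mRNA levels, by real-time RT-PCR (RTS4814) and corrected for total RNA via RIBOGREEN, are given as percent of untreated cells. Gapmers (16-mer, cEt wings, phosphorothioate, 5-methylC) were delivered without transfection at 2,000 nM to A-431 cells for about 48 hours.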

Substance	YAP1 (% UTC)
1076132 (k[5mC]*kA*kT*d[5mC]*dA*dA*dT*dA*d[5mC]*dT*dG*dA*d[5mC]*kA*kT*k[5mC]; antisense) [Compound 1076132]	28 % UTC
1076164 (kT*kG*kA*dT*dA*dT*dA*dA*dG*dT*dT*dA*d[5mC]*k[5mC]*kA*kA; antisense) [Compound 1076164]	50 % UTC
1076196 (kT*kA*kT*d[5mC]*dA*dA*dG*dG*dG*dA*dA*dT*dT*kA*kT*kT; antisense) [Compound 1076196]	113 % UTC

Same assay, conditions: Table 19; A-431 cells, 5,000 cells per well, free uptake, 2,000 nM modified oligonucleotide, approx. 48 hours; RTS4814; normalized to RIBOGREEN; Yap1 mRNA as percent of untreated control

Substance	YAP1 (% UTC)
1076101 (kA*kA*kA*dT*dA*dA*dG*dG*dG*dA*d[5mC]*dT*dA*k[5mC]*kT*kT; antisense) [Compound 1076101]	71 % UTC
1076133 (k[5mC]*kA*kT*dA*d[5mC]*dT*dA*dA*dT*dT*dT*dG*dG*kT*kA*kA; antisense) [Compound 1076133]	60 % UTC
1076165 (k[5mC]*k[5mC]*k[5mC]*d[5mC]*dA*dA*dG*dG*dA*d[5mC]*dT*dT*dG*k[5mC]*k[5mC]*kA; antisense) [Compound 1076165]	79 % UTC
1076197 (kT*kA*kT*dT*dA*dT*d[5mC]*dA*dA*dG*dG*dG*dA*kA*kT*kT; antisense) [Compound 1076197]	94 % UTC

Same assay, conditions: Table 20; Yap1 mRNA, percent of untreated control; 3-10-3 cEt gapmers targeting SEQ ID NO.: 1 and 2

Substance	YAP1 (% UTC)
1076102 (k[5mC]*kT*kT*dA*dA*d[5mC]*dA*dA*dA*dT*d[5mC]*dA*dG*k[5mC]*k[5mC]*k[5mC]; antisense) [Compound 1076102]	32 % UTC
1076134 (kG*kA*kT*dT*dA*dG*dA*dG*dT*dT*dG*dG*dG*k[5mC]*kA*kT; antisense) [Compound 1076134]	10 % UTC
1076166 (kA*kT*kT*dT*dA*d[5mC]*dA*d[5mC]*d[5mC]*dA*d[5mC]*d[5mC]*dG*k[5mC]*k[5mC]*k[5mC]; antisense) [Compound 1076166]	77 % UTC
1076198 (k[5mC]*kT*kA*dT*dT*dA*dT*d[5mC]*dA*dA*dG*dG*dG*kA*kA*kT; antisense) [Compound 1076198]	81 % UTC

Same assay, conditions: Table 21; Yap1 mRNA, percent of untreated control; 3-10-3 cEt gapmers targeting SEQ ID NO.: 1 and 2

Substance	YAP1 (% UTC)
1076103 (kG*k[5mC]*kT*dT*dA*dA*d[5mC]*dA*dA*dA*dT*d[5mC]*dA*kG*k[5mC]*k[5mC]; antisense) [Compound 1076103]	79 % UTC
1076135 (k[5mC]*kA*kT*dA*dA*dT*dT*dG*dA*d[5mC]*dA*dG*dG*kT*kA*kT; antisense) [Compound 1076135]	14 % UTC
1076167 (kA*kA*kA*dT*dT*dT*dA*d[5mC]*dA*d[5mC]*d[5mC]*dA*d[5mC]*k[5mC]*kG*k[5mC]; antisense) [Compound 1076167]	33 % UTC
1076199 (kT*kA*kT*d[5mC]*dA*dA*dA*dA*dG*dT*d[5mC]*d[5mC]*dA*kT*k[5mC]*k[5mC]; antisense) [Compound 1076199]	37 % UTC

Same assay, conditions: Table 22; Yap1 mRNA as percent of untreated control; 3-10-3 cEt gapmers; single dose

Substance	YAP1 (% UTC)
1076104 (kA*k[5mC]*kG*dA*dA*dA*dT*dA*dG*dT*dA*dA*d[5mC]*kT*kG*kT; antisense) [Compound 1076104]	24 % UTC
1076136 (k[5mC]*kA*kA*d[5mC]*dA*dA*d[5mC]*d[5mC]*dT*d[5mC]*dA*dT*dG*kT*kA*kA; antisense) [Compound 1076136]	60 % UTC
1076168 (k[5mC]*kA*kA*dA*dT*dT*dT*dA*d[5mC]*dA*d[5mC]*d[5mC]*dA*k[5mC]*k[5mC]*kG; antisense) [Compound 1076168]	23 % UTC
1076200 (kG*kA*kT*dT*dA*d[5mC]*dA*d[5mC]*dT*dA*dT*d[5mC]*dA*kA*kA*kA; antisense) [Compound 1076200]	67 % UTC

Same assay, conditions: Table 23; Yap1 mRNA as percent of untreated control; 3-10-3 cEt gapmers; single dose

Substance	YAP1 (% UTC)
1076105 (kT*kA*k[5mC]*dG*dA*dA*dA*dT*dA*dG*dT*dA*dA*k[5mC]*kT*kG; antisense) [Compound 1076105]	13 % UTC
1076137 (k[5mC]*kA*k[5mC]*d[5mC]*dA*dA*d[5mC]*dA*dA*d[5mC]*d[5mC]*dT*d[5mC]*kA*kT*kG; antisense) [Compound 1076137]	45 % UTC
1076169 (k[5mC]*kT*kA*d[5mC]*dT*dA*dT*dA*dT*d[5mC]*dT*dT*dT*kG*kG*kG; antisense) [Compound 1076169]	10 % UTC
1076201 (k[5mC]*kT*kA*dA*dA*dA*dA*dG*dA*d[5mC]*dA*dG*dG*kG*k[5mC]*k[5mC]; antisense) [Compound 1076201]	99 % UTC

Same assay, conditions: Table 24; Yap1 mRNA as percent of untreated control; 3-10-3 cEt gapmers targeting SEQ ID NO.: 1, and 2

Substance	YAP1 (% UTC)
1076106 (k[5mC]*kT*kA*d[5mC]*dG*dA*dA*dA*dT*dA*dG*dT*dA*kA*k[5mC]*kT; antisense) [Compound 1076106]	77 % UTC
1076138 (kA*kG*k[5mC]*d[5mC]*dA*dA*d[5mC]*dA*dA*dT*dT*dT*dT*kT*kG*kG; antisense) [Compound 1076138]	113 % UTC
1076170 (kA*kG*kT*dA*dA*dA*dG*dA*dG*dT*dA*d[5mC]*dT*kG*kT*kA; antisense) [Compound 1076170]	16 % UTC
1076202 (kT*k[5mC]*kT*dA*dA*dA*dA*dA*dG*dA*d[5mC]*dA*dG*kG*kG*k[5mC]; antisense) [Compound 1076202]	32 % UTC

Same assay, conditions: Table 25; Yap1 mRNA as percent of untreated control; 3-10-3 cEt gapmers targeting SEQ ID NO.: 1, and 2

Substance	YAP1 (% UTC)
1076107 (k[5mC]*kA*kT*dT*dA*d[5mC]*d[5mC]*dA*dA*d[5mC]*dT*dT*d[5mC]*kT*kT*k[5mC]; antisense) [Compound 1076107]	23 % UTC
1076139 (k[5mC]*kG*kA*dA*dA*dA*dA*dA*dG*d[5mC]*d[5mC]*dA*dA*k[5mC]*kA*kA; antisense) [Compound 1076139]	18 % UTC
1076171 (kA*kT*kT*dA*dG*dT*dA*dA*dA*dG*dA*dG*dT*kA*k[5mC]*kT; antisense) [Compound 1076171]	30 % UTC
1076203 (kG*kT*kT*dA*dA*dT*dA*d[5mC]*dA*dT*dG*dG*d[5mC]*k[5mC]*kA*kA; antisense) [Compound 1076203]	29 % UTC

Same assay, conditions: Table 32; Yap1 mRNA, percent of untreated control; 3-10-3 cEt gapmers targeting SEQ ID NO.: 1, and 2

Substance	YAP1 (% UTC)
1076146 (kG*k[5mC]*kT*dA*dA*dA*dA*d[5mC]*dT*dT*dT*d[5mC]*dA*kT*k[5mC]*k[5mC]; antisense) [compound 1076146]	23 % UTC
1076178 (k[5mC]*k[5mC]*kT*dG*dA*dA*dA*dT*dA*d[5mC]*dA*dG*dG*kT*kG*kT; antisense) [compound 1076178]	100 % UTC
1076210 (kA*kT*kT*dT*dA*dT*dA*dT*dG*d[5mC]*dT*d[5mC]*d[5mC]*k[5mC]*kT*k[5mC]; antisense) [compound 1076210]	20 % UTC

Same assay, conditions: Table 33; Yap1 mRNA, percent of untreated control; 3-10-3 cEt gapmers targeting SEQ ID NO.: 1, and 2

Substance	YAP1 (% UTC)
1076147 (kA*kT*kT*dA*dA*d[5mC]*dT*d[5mC]*dA*d[5mC]*dG*dA*dA*kG*kA*k[5mC]; antisense) [compound 1076147]	25 % UTC
1076179 (kA*kA*kT*dT*dA*dG*d[5mC]*d[5mC]*dA*dA*d[5mC]*d[5mC]*dA*k[5mC]*k[5mC]*kT; antisense) [compound 1076179]	38 % UTC

Same assay, conditions: Yap1 mRNA as percent of untreated control; A-431 cells; 3-10-3 cEt gapmers targeting SEQ ID NO.: 1, and 2; Table 30

Substance	YAP1 (% UTC)
1076112 (kA*kT*kT*d[5mC]*dA*dA*dA*dA*d[5mC]*d[5mC]*dA*d[5mC]*dG*kG*kA*kA; antisense) [compound 1076112]	98 % UTC
1076144 (kT*kT*kT*dT*dA*dT*dA*dG*dG*dG*d[5mC]*dA*dA*kT*kG*kG; antisense) [compound 1076144]	7 % UTC
1076176 (k[5mC]*kT*k[5mC]*d[5mC]*dA*dA*dT*dA*dG*dG*dT*dA*dA*k[5mC]*kA*kG; antisense) [compound 1076176]	43 % UTC
1076208 (kG*kA*kG*dG*dA*dA*dT*dA*dT*dT*dA*d[5mC]*dA*kG*kA*k[5mC]; antisense) [compound 1076208]	15 % UTC

Same assay, conditions: Yap1 mRNA as percent of untreated control; A-431 cells; 3-10-3 cEt gapmers targeting SEQ ID NO.: 1, and 2; Table 31

Substance	YAP1 (% UTC)
1076113 (kT*kG*kA*d[5mC]*dA*dA*dT*dA*dG*d[5mC]*d[5mC]*dA*dA*kT*kG*k[5mC]; antisense) [compound 1076113]	16 % UTC
1076145 (k[5mC]*k[5mC]*kT*dT*dA*dT*dA*dG*dG*dT*dT*dA*dT*kA*kG*kT; antisense) [compound 1076145]	41 % UTC
1076177 (k[5mC]*kT*kT*dT*dA*dT*dT*dT*d[5mC]*d[5mC]*d[5mC]*dA*d[5mC]*k[5mC]*k[5mC]*kG; antisense) [compound 1076177]	37 % UTC
1076209 (k[5mC]*kA*kT*dT*dA*dG*d[5mC]*dA*d[5mC]*dA*d[5mC]*d[5mC]*dT*kT*kT*kT; antisense) [compound 1076209]	12 % UTC
